Our source for the pest or weed control and melting point values is patent US9144239B2, “Macrocyclic picolinamides as fungicides” (DOW AGROSCIENCES LLC, priority 2012, dated 2015).

Each structure is given as a SMILES string. Like-named read-outs stand apart in the source and are kept apart here.

The subject of data set [1] is Puccinia triticina; synonym: Puccinia recondita f. sp. tritici. Put plainly: Fungicide mobility (dropline mobility test): wheat brown rust (PUCCRT). The data set is classed as in vivo. The note with it: 1 ug/leaf. Put shortly: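 A 2 μl drop of formulated compound (EC blank, 110 ppm Triton X-100 water) was applied to a line 5 cm from the tip of primary leaves of "Yuma" wheat seedlings, 6 replicates. Inoculation with PUCCRT was done 1 day after or 3 days before application. Once disease was fully expressed on controls, the acropetal disease-free zone was measured as percent of line-to-tip distance.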

Data set [2] shares this test system. As to the kind of experiment: Fungicidal activity: wheat brown rust (PUCCRT), wheat seedlings. The data set is classed as in vivo. Put shortly: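 Wheat (Yuma) seedlings at first-leaf stage, inoculated with Puccinia triticina spores before or after treatment, held overnight in dark dew room at 22° C, 100% RH, then greenhouse at 24° C. Acetone solutions diluted with nine volumes water containing 110 ppm Triton X-100, sprayed to run-off. Percent disease control derived from severity (0–100%) relative to untreated plants.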

The subject of data set [3] is Mycosphaerella graminicola; anamorph: Septoria tritici. As to the kind of experiment: Fungicidal activity: leaf blotch of wheat (SEPTTR), wheat seedlings. The data set is classed as in vivo. The note with it: Zymoseptoria tritici. Put shortly: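 Percent control derives from disease severity on treated versus untreated first leaves, rated 0–100% when symptoms were fully expressed on untreated plants. Yuma seedlings were inoculated with S. tritici spores either before or after spraying to run-off. The spray was acetone solution diluted 1:9 in water with 110 ppm Triton X-100. Infection took place in 100% RH dew chambers, then a 20 °C greenhouse.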

Setting [4] is: 24 h, 1 Day Protectant Mobility, read-out: Dropline Mobility Test PUCCRT 1DPM.
Where [5] appears, read: 72 h, 3 Day Curative Mobility, read-out: Dropline Mobility Test PUCCRT 3DCM.
Where [6] appears, read: 24 h, 100 ppm, 1 Day Protectant, wheat, read-out: Disease Control PUCCRT 1DP.
Setting [7] is: 72 h, 100 ppm, 3 Day Curative, wheat, read-out: Disease Control PUCCRT 3DC.
The mark [8] stands for this setting: 24 h, 100 ppm, 1 Day Protectant, wheat, read-out: Disease Control SEPTTR 1DP.
[9] abbreviates: 72 h, 100 ppm, 3 Day Curative, wheat, read-out: Disease Control SEPTTR 3DC.

As a reminder, the melting point is the temperature of the solid-liquid transition. Consider `COc1ccnc(C(=O)N[C@H]2COC[C@H](OCc3ccccc3)[C@@H](OCc3ccccc3)[C@H](C)OC2=O)c1O` [Compound 11, N-((3S,7S,8S,9S)-7,8-bis(benzyloxy)-9-methyl-2-oxo-1,5-dioxonan-3-yl)-3-hydroxy-4-methoxypicolinamide], for which the melting point is 144 to 146 °C. Also, the pest or weed control at 1 µg/leaf in data set [1] (setting [4]) was in the range of 0 to 80%. Also, the pest or weed control at 1 µg/leaf in data set [1] (setting [5]) lay in the range of 0 to 80%. Moreover, in data set [2] (setting [6]), the pest or weed control at 100 ppm fell in the range of 80 to 100%. Also, the pest or weed control at 100 ppm in data set [2] (setting [7]) is 80 to 100%. For the same compound, the pest or weed control at 100 ppm in data set [3] (setting [8]) lay in the range of 80 to 100%. Moreover, the pest or weed control at 100 ppm in data set [3] (setting [9]) lay within 0 to 80%.
Regarding `COc1ccnc(C(=O)N[C@H]2COC[C@H](O)[C@@H](OCC(C)C)[C@H](C)OC2=O)c1O` [Compound 72, 3-hydroxy-N-((3S,7S,8R,9S)-7-hydroxy-8-isobutoxy-9-methyl-2-oxo-1,5-dioxonan-3-yl)-4-methoxypicolinamide], the melting point was in the range of 121 to 124 °C. For the same compound, the pest or weed control at 1 µg/leaf in data set [1] (setting [4]) was 0 to 80%. In addition, the pest or weed control at 1 µg/leaf in data set [1] (setting [5]) lay in the range of 0 to 80%. In data set [2] (setting [6]), the pest or weed control at 100 ppm lay within 0 to 80%. In addition, the pest or weed control at 100 ppm in data set [2] (setting [7]) was in the range of 0 to 80%. Moreover, in data set [3] (setting [8]), the pest or weed control at 100 ppm fell in the range of 0 to 80%. The pest or weed control at 100 ppm in data set [3] (setting [9]) lay in the range of 0 to 80%.
Consider `COc1ccnc(C(=O)N[C@H]2COC[C@H](OC3CCCCC3)[C@@H](OCC(C)C)[C@H](C)OC2=O)c1O` [Compound 73], for which the melting point lay within 122 to 125 °C. For the same compound, the pest or weed control at 1 µg/leaf in data set [1] (setting [4]) was 0 to 80%. For the same compound, the pest or weed control at 1 µg/leaf in data set [1] (setting [5]) fell in the range of 0 to 80%. Besides, the pest or weed control at 100 ppm in data set [2] (setting [6]) lay in the range of 80 to 100%. Besides, the pest or weed control at 100 ppm in data set [2] (setting [7]) is 80 to 100%. The pest or weed control at 100 ppm in data set [3] (setting [8]) is 80 to 100%. Also, the pest or weed control at 100 ppm in data set [3] (setting [9]) was in the range of 80 to 100%.
For the compound `COc1ccnc(C(=O)N[C@H]2COC[C@H](OCC(C)C)[C@@H](Oc3ccccc3)[C@H](C)OC2=O)c1O` [Compound 82, 3-hydroxy-N-((3S,7S,8S,9S)-7-isobutoxy-9-methyl-2-oxo-8-phenoxy-1,5-dioxonan-3-yl)-4-methoxypicolinamide], the melting point was in the range of 117 to 119 °C. Also, in data set [1] (setting [4]), the pest or weed control at 1 µg/leaf was in the range of 80 to 100%. In data set [1] (setting [5]), the pest or weed control at 1 µg/leaf lay within 0 to 80%. For the same compound, the pest or weed control at 100 ppm in data set [2] (24 h, read-out: Disease Control PUCCRT 1DP) lay in the range of 80 to 100%. In addition, in data set [2] (72 h, read-out: Disease Control PUCCRT 3DC), the pest or weed control at 100 ppm lay in the range of 80 to 100%. The pest or weed control at 100 ppm in data set [3] (24 h, read-out: Disease Control SEPTTR 1DP) fell in the range of 80 to 100%. Besides, the pest or weed control at 100 ppm in data set [3] (72 h, read-out: Disease Control SEPTTR 3DC) lay within 0 to 80%.
Take `COc1ccnc(C(=O)N[C@H]2COC[C@H](Oc3ccccc3)[C@@H](OCC(C)C)[C@H](C)OC2=O)c1O` [Compound 83]: the melting point lay in the range of 112 to 113 °C. Moreover, the pest or weed control at 1 µg/leaf in data set [1] (setting [4]) was 80 to 100%. The pest or weed control at 1 µg/leaf in data set [1] (setting [5]) fell in the range of 0 to 80%. Further, in data set [2] (setting [6]), the pest or weed control at 100 ppm fell in the range of 80 to 100%. In addition, the pest or weed control at 100 ppm in data set [2] (setting [7]) was 80 to 100%. Also, the pest or weed control at 100 ppm in data set [3] (setting [8]) lay within 80 to 100%. The pest or weed control at 100 ppm in data set [3] (setting [9]) was 80 to 100%.
